{"source": "paper PMC7052167", "about": "“TCR–pMHC bond conformation controls TCR ligand discrimination” (Cellular and Molecular Immunology, 2019)", "type_in_all_cases": "cell-based, mouse", "key": {"[1]": {"system": "TCR–CD3ζ complex of 5C.C7 T cells", "test": "Transmembrane TCR–CD3ζ FRET2 (GFP/Alexa Fluor 568), intramolecular TCR–CD3ζ distance", "conditions": "10 μM PP2", "text": "To determine the conformation of a single TCR–pMHC bond, a TCR and a pMHC were site-specifically labeled with the FRET acceptor Cy5 and the FRET donor Cy3, respectively.[8] The peptide within the MHC molecule was labeled with Cy3, and the TCR was labeled with the anti-TCR single-chain variable fragment (scFv) J1-Cy5 (Fig. 1a and Fig. S1a). The intermolecular distance between Cy3 and Cy5 provided a reasonable approximation of the conformation (or compactness) of the TCR–pMHC bond. The conformation of a single TCR–pMHC bond on the cell surface was measured by Cy3/Cy5 FRET (FRET1) (Fig. 1a) in real time by total internal reflection fluorescence (TIRF) microscopy (Fig. S1b). The Cy3/Cy5 inter-dye distance of a TCR–pMHC bond is denoted as the TCR–pMHC bond distance to describe the TCR–pMHC bond conformation in the following paragraphs. […] The real-time intramolecular distances of the TCR–CD3ζ complexes were measured by GFP/Alexa Fluor 568 FRET (FRET2) (Fig. 1a) using epifluorescence time-lapse microscopy (Fig. S1b).\nIt is not clear what induces the dissociation of CD3ζ from the membrane to initiate T-cell intracellular signaling. […] We tracked and measured the FRET efficiencies of each individual microcluster in real time. […]"}, "5C.C7 T cell": {"system": "5C.C7 T cell", "test": "T-cell calcium signaling (fluorescence imaging)", "conditions": "10 μM PP2; X-Rhod-5F indicator, 37 °C", "text": "To understand how the TCR–pMHC bond conformation triggers T-cell signaling, we devised a fluorescence micropipette assay to measure real-time T-cell calcium signaling at the single-cell level. Fast single T-cell calcium flux was observed upon T cell/APC contact (bond formation). Consistently, the calcium signaling amplitude and speed were dependent on the peptide potency (Fig. 5e, f, Fig. S15, and Movie S7). To link the TCR conformational change to TCR signaling, we simultaneously plotted the association of the TCR–CD3ζ conformational change with the Ca^2+ signal against the stimulation time. […] Ca^2+ release in turn drives the dissociation of positively charged CD3ζ from the negatively charged phospholipids in the plasma membrane[32] to expose the CD3ζ ITAM domains for phosphorylation via a Ca^2+ signaling feedback loop (Fig. 5h).\n(§1) To measure the TCR–pMHC bond distance by smFRET in the absence of CD4 binding, T cells were incubated with 10 μg/mL anti-CD4 antibody (GK 1.5, Biolegend) and 0.027 µg/µL of Cy5-J1 scFV for 30 min at 4 °C. After three washes, the cells were added to a lipid bilayer containing Cy3-pMHCs, and smFRET assays were performed in the continuous presence of 10 μg/mL anti-CD4 antibody at 37 °C using TIRF microscopy. […]"}, "[2]": {"system": "TCR microclusters of 5C.C7 T cells", "test": "TCR microcluster formation at the T-cell synapse", "conditions": "10 μM PP2", "text": "TCRs form microclusters upon antigen stimulation (Movie S4). To measure the conformational dynamics of single TCR–pMHC bonds without possible interference from TCR microclusters, we used latrunculin A (LA) to prevent the formation of TCR microclusters during smFRET measurements. […] We then performed smFRET in the absence of TCR microclusters.\nTo test whether TCR–CD3ζ conformational changes were dependent on TCR signaling, we used an Src kinase inhibitor PP2[27] to block TCR signaling. Consistent with the results of a previous study,[21] […] To reveal the role of TCR signaling in TCR–CD3ζ conformational changes, we plotted the time trajectories of the normalized intramolecular TCR–CD3ζ distances against the stimulation time in the absence and presence of PP2 (Fig. 4d). In the absence of PP2, the intracellular CD3ζ chain quickly separated from the TCR extracellular domain upon TCR engagement with the K5 pMHC and then reached a stable, fully extended TCR–CD3ζ conformation.\nas §1"}}, "data": [{"molecule": "CC(C)(C)n1nc(-c2ccc(Cl)cc2)c2c(N)ncnc21", "note": "[PP2]", "values": [{"measurement": "effect of PP2 on TCR–CD3ζ conformational change", "setting": "[1]; K5 pMHC, 37 °C", "result": "completely abolished the TCR-CD3 conformational change"}, {"measurement": "effect of PP2 on TCR–CD3ζ conformational change (MCC and 102S)", "setting": "[1]; MCC and 102S pMHCs, Fig. S11", "result": "this effect of TCR signaling was also found"}, {"measurement": "effect of PP2 on T-cell calcium signaling", "setting": "5C.C7 T cell", "result": "completely abrogated T-cell calcium signaling"}, {"measurement": "effect of PP2 on TCR microcluster formation", "setting": "[2]", "result": "TCRs could still form microclusters"}]}]}
